Results reported in US8580829B2 (Boehringer Ingelheim International GmbH, priority 2010, dated 2013).

Assays:
[1] = target: T1, recombinant human FLAP protein (Homo sapiens, UniProt P20292); assay: FLAP binding assay (Scintillation Proximity Assay, displacement of [125I]L-691,831); conditions: recombinant human FLAP membranes, [125I]L-691,831 probe; read-out: FLAP SPA IC50
T1 construct: made in house; host or cells: Sf9 insect cells (100,000 x g membrane fraction)
T1 sequence (P20292 1-161): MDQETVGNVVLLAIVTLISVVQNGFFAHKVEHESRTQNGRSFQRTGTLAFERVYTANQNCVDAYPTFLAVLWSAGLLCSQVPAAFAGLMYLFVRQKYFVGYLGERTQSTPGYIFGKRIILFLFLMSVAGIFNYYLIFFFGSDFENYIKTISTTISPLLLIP
Procedure: Cell pellets produced from sf9 insect cells expressing recombinant human FLAP protein are resuspended in buffer A [15 mM Tris-HCl (pH 7.5), 2 mM MgCl2, 0.3 mM EDTA, 1 mM PMSF]. The cells are lysed with a Dounce homogenizer and the material is centrifuged at 10,000×g for 10 minutes. The supernatant is then collected and centrifuged at 100,000×g for 60 minutes. To prepare membrane protein for an assay, an aliquot of the 100,000×g pellet is resuspended in 1 ml of buffer A, Dounce homogenized, and finally subjected to polytron mixing (30 seconds). Membrane protein (25 μl, 5 μg) is mixed with WGA SPA beads (Amersham) and stirred for 1 h.

[2] = tested on: synthesis of LTB4 in human whole blood; assay: human whole blood LTB4 production inhibition assay; type: cell-based; conditions: Homo sapiens, heparinized human whole blood, calcimycin 20 μM; read-out: hWB LTB4 IC50
Procedure: Compounds are additionally tested in a human whole blood assay to determine their ability to inhibit the synthesis of LTB4 in a cellular system. Compounds are combined with heparinized human whole blood and incubated for 15 minutes at 37° C. Calcimycin (20 μM final, prepared in phosphate-buffered saline, pH 7.4) is then added and the mixture is incubated for another 30 minutes at 37° C. The samples are centrifuged for 5 min at low speed (1500×g) and the plasma layer is removed. Plasma LTB4 concentrations are then measured using an antibody-based homogenous time-resolved fluorescence method (CisBio, Bedford, Mass.).

| IC50 [1] | IC50 [2] | SMILES |
| --- | --- | --- |
| 3.9 nM | 88 nM | CCN(CC)C(=O)Cn1cc(-c2nc(C3(c4ccc(-c5cnc(N)nc5)cc4)CCC3)no2)cn1 [Example 131, 2-[4-(3-{1-[4-(2-Amino-pyrimidin-5-yl)-phenyl]-cyclobutyl]-1,2,4-oxadiazol-5-yl)-pyrazol-1-yl]-N,N-diethyl-acetamide] |
| 35 nM | 230 nM | Nc1ncc(-c2ccc(C3(c4noc(N5CC[C@@H](O)C5)n4)CCC3)cc2)cn1 [Example 290, (R)-1-(3-{1-[4-(2-Amino-pyrimidin-5-yl)-phenyl]-cyclobutyl}-[1,2,4]oxadiazol-5-yl)-pyrrolidin-3-ol] |
| 7 nM | 110 nM | CNc1ncc(-c2ccc(C3(c4noc(-c5cnn(CC(=O)N(C)C)c5)n4)CCC3)cc2)cn1 [Example 276, N,N-Dimethyl-2-[4-(3-{1-[4-(2-methylamino-pyrimidin-5-yl)-phenyl]-cyclobutyl}-[1,2,4]oxadiazol-5-yl)-pyrazol-1-yl]-acetamide] |
| 0.89 nM | > 5000 nM | CS(=O)(=O)CCNC(=O)Cn1cc(-c2nc(C3(c4ccc(-c5cnc(N)nc5)cc4)CCC3)no2)cn1 [Example 225, 2-[4-(3-{1-[4-(2-Amino-pyrimidin-5-yl)-phenyl]-cyclobutyl}-[1,2,4]oxadiazol-5-yl)-pyrazol-1-yl]-N-(2-methanesulfonyl-ethyl)-acetamide] |
| 5.5 nM | 230 nM | COc1ccncc1-c1nc(C2(c3ccc(-c4cnc(N)nc4)cc3)CCC2)no1 [Example 168, 5-(4-{1-[5-(4-Methoxy-pyridin-3-yl)-1,2,4-oxadiazol-3-yl]-cyclobutyl}-phenyl)-pyrimidin-2-ylamine] |
| 2.8 nM | 400 nM | Cc1ccc(-c2nc(C3(c4ccc(-c5cnc(N)nc5)cc4)CCCC3)no2)cn1 [Example 155, 5-(4-{1-[5-(6-Methyl-pyridin-3-yl)-1,2,4-oxadiazol-3-yl]-cyclopentyl}-phenyl)-pyrimidin-2-ylamine] |
| 3.5 nM | 140 nM | COCCN(C)C(=O)Cn1cc(-c2nc(C3(c4ccc(-c5cnc(N)nc5)cc4)CCC3)no2)cn1 [Example 241, 2-[4-(3-{1-[4-(2-Amino-pyrimidin-5-yl)-phenyl]-cyclobutyl}-[1,2,4]oxadiazol-5-yl)-pyrazol-1-yl]-N-(2-methoxy-ethyl)-N-methyl-acetamide] |
| 15 nM | 1200 nM | CC(C)(C)c1ccc(-c2nc(C3(c4ccc(-c5cnc(N)nc5)cc4)CCC3)no2)cc1 [Example 54, 5-(4-{1-[5-(4-tert-Butyl-phenyl)-1,2,4-oxadiazol-3-yl]-cyclobutyl}-phenyl)-pyrimidin-2-ylamine] |
| 6 nM | 140 nM | CN(C)C(=O)Cn1cc(-c2nc(C3(c4ccc(-c5ccc(N)nc5)cc4)CCC3)no2)cn1 [Example 301, 2-[4-(3-{1-[4-(6-Amino-pyridin-3-yl)-phenyl]-cyclobutyl}-[1,2,4]oxadiazol-5-yl)-pyrazol-1-yl]-N,N-dimethyl-acetamide] |
| 1.4 nM | 760 nM | Nc1ncc(-c2ccc(C3(c4noc(-c5ccc(NCCO)nn5)n4)CCC3)cc2)cn1 [Example 112, 2-[6-(3-{1-[4-(2-Amino-pyrimidin-5-yl)-phenyl]-cyclobutyl}-1,2,4-oxadiazol-5-yl)-pyridazin-3-ylamino]-ethanol] |
| 1.5 nM | 48 nM | CC(C)Nc1cnc(-c2nc(C3(c4ccc(-c5cnc(N)nc5)cc4)CCC3)no2)cn1 [Example 197, 5-(4-{1-[5-(5-Isopropylamino-pyrazin-2-yl)-1,2,4-oxadiazol-3-yl]-cyclobutyl}-phenyl)-pyrimidin-2-ylamine] |
| 13 nM | 1100 nM | Nc1ncc(-c2ccc(C3(c4noc(-c5ccc(Cl)c(Cl)c5)n4)CCC3)cc2)cn1 [Example 55, 5-(4-{1-[5-(3,4-Dichloro-phenyl)-1,2,4-oxadiazol-3-yl]-cyclobutyl}-phenyl)-pyrimidin-2-ylamine] |
| 1.3 nM | 59 nM | Nc1ncc(-c2ccc(C3(c4noc(-c5cnn(CCN6CCCC6=O)c5)n4)CCC3)cc2)cn1 [Example 216, 1-{2-[4-(3-{1-[4-(2-Amino-pyrimidin-5-yl)-phenyl]-cyclobutyl}-[1,2,4]oxadiazol-5-yl)-pyrazol-1-yl]-ethyl}-pyrrolidin-2-one] |
| 1.9 nM | 78 nM | Nc1ncc(-c2ccc(C3(c4noc(-c5ccc(N6CC[C@H](O)C6)nc5)n4)CCC3)cc2)cn1 [Example 105, (S)-1-[5-(3-{1-[4-(2-Amino-pyrimidin-5-yl)-phenyl]-cyclobutyl}-1,2,4-oxadiazol-5-yl)-pyridin-2-yl]-pyrrolidin-3-ol] |
| 2.1 nM | 290 nM | Cc1ncc(-c2nc(C3(c4ccc(-c5cnc(N)nc5)cc4)CCC3)no2)[nH]1 [Example 10, 5-(4-{1-[5-(2-Methyl-3H-imidazol-4-yl)-1,2,4-oxadiazol-3-yl]-cyclobutyl}-phenyl)-pyrimidin-2-ylamine] |
| 6.2 nM | 240 nM | Nc1ncc(-c2ccc(C3(c4noc(-c5ccnnc5)n4)CCC3)cc2)cn1 [Example 160, 5-{4-[1-(5-Pyridazin-4-yl-1,2,4-oxadiazol-3-yl)-cyclobutyl]-phenyl}-pyrimidin-2-ylamine] |
| 670 nM | > 5000 nM | CN(C)C(=O)Cn1cc(-c2nc(C3(c4ccc(-c5cnc(N)nc5)cc4)CC3)no2)cn1 [Example 268, 2-[4-(3-{1-[4-(2-Amino-pyrimidin-5-yl)-phenyl]-cyclopropyl}-[1,2,4]oxadiazol-5-yl)-pyrazol-1-yl]-N,N-dimethyl-acetamide] |
| 5.4 nM | 120 nM | CN(CC1CCCO1)C(=O)Cn1cc(-c2nc(C3(c4ccc(-c5cnc(N)nc5)cc4)CCC3)no2)cn1 (stereo not drawn) [Example 242, 2-[4-(3-{1-[4-(2-Amino-pyrimidin-5-yl)-phenyl]-cyclobutyl}-[1,2,4]oxadiazol-5-yl)-pyrazol-1-yl]-N-methyl-N-(tetrahydro-furan-2-ylmethyl)-acetamide] |
| 2.7 nM | 130 nM | CCOC(=O)CCN1CCN(c2ccc(-c3nc(C4(c5ccc(-c6cnc(N)nc6)cc5)CCC4)no3)cn2)CC1 [Example 106, 3-{4-[5-(3-{1-[4-(2-Amino-pyrimidin-5-yl)-phenyl]-cyclobutyl}-1,2,4-oxadiazol-5-yl)-pyridin-2-yl]-piperazin-1-yl}-propionic acid ethyl ester] |
| 4.3 nM | 260 nM | CC(C)(O)c1ccc(-c2nc(C3(c4ccc(-c5cnc(N)nc5)cc4)CCC3)no2)cn1 [Example 172] |
| 1 nM | 37 nM | N#CCn1cc(-c2nc(C3(c4ccc(-c5cnc(N)nc5)cc4)CCC3)no2)cn1 [Example 238, [4-(3-{1-[4-(2-Amino-pyrimidin-5-yl)-phenyl]-cyclobutyl}-[1,2,4]oxadiazol-5-yl)-pyrazol-1-yl]-acetonitrile] |
| 2.2 nM | 100 nM | CCn1ncc(-c2nc(C3(c4ccc(-c5cnc(N)nc5)cc4)CCC3)no2)c1C [Example 2, 5-(4-{1-[5-(1-ethyl-5-methyl-1H-pyrazol-4-yl)-1,2,4-oxadiazol-3-yl]-cyclobutyl}-phenyl)-pyrimidin-2-ylamine] |
| 6.2 nM | 2500 nM | Nc1ncc(-c2ccc(C3(c4noc(-c5cnn(CC(=O)N6CCC(O)C6)c5)n4)CCC3)cc2)cn1 (stereo not drawn) [Example 239, 2-[4-(3-{1-[4-(2-Amino-pyrimidin-5-yl)-phenyl]-cyclobutyl}-[1,2,4]oxadiazol-5-yl)-pyrazol-1-yl]-1-(3-hydroxy-pyrrolidin-1-yl)-ethanone] |
| 6.5 nM | 230 nM | Nc1ncc(-c2ccc(C3(c4noc(-c5ccc(C(=O)N6CCOCC6)nc5)n4)CCC3)cc2)cn1 [Example 30, [5-(3-{1-[4-(2-Amino-pyrimidin-5-yl)-phenyl]-cyclobutyl}-1,2,4-oxadiazol-5-yl)-pyridin-2-yl]-morpholin-4-yl-methanone] |
| 1.2 nM | 27 nM | Nc1ncc(-c2ccc(C3(c4noc(-c5ccc6[nH]ncc6c5)n4)CCC3)cc2)cn1 [Example 190, 5-(4-{1-[5-(1H-Indazol-5-yl)-1,2,4-oxadiazol-3-yl]-cyclobutyl}-phenyl)-pyrimidin-2-ylamine] |
| 4.6 nM | 77 nM | Cn1cccc(-c2nc(C3(c4ccc(-c5cnc(N)nc5)cc4)CCC3)no2)c1=O [Example 32, 3-(3-{1-[4-(2-Amino-pyrimidin-5-yl)-phenyl]-cyclobutyl}-1,2,4-oxadiazol-5-yl)-1-methyl-1Hpyridin-2-one] |
| 1.7 nM | 67 nM | CN(C(=O)Cn1cc(-c2nc(C3(c4ccc(-c5cnc(N)nc5)cc4)CCC3)no2)cn1)C1CCOCC1 [Example 235, 2-[4-(3-{1-[4-(2-Amino-pyrimidin-5-yl)-phenyl]-cyclobutyl}-[1,2,4]oxadiazol-5-yl)-pyrazol-1-yl]-N-methyl-N-(tetrahydro-pyran-4-yl)-acetamide] |
